{"source": "paper PMC6825211", "about": "(Nature Communications, 2019)", "key": {"[1]": {"system": "isolated islets from db/db mice", "assay": "Ex vivo β-cell apoptosis (TUNEL) in isolated db/db islets", "format": "cell-based, mouse", "details": "for TUNEL%: dbdb islets with Nera"}, "[2]": {"system": "INS-1E cells", "assay": "Caspase-3 activation Nucview assay, thapsigargin", "format": "cell-based, rat", "details": "0.1 µM thapsigargin, NucView 488", "experimental": "Apoptosis was induced after 24 h of compound treatment by 0.1 µM Thapsigargin (Torics, Bristol, United Kingdom) with caspase-3 substrate, Nucview 488 (Biotium, CA) in the treatment.\n1 50 Supplementary Figure 3\n100 Cell number Cell Number\nevaluated through Nucview488 and Hoechst33342.\nwere analyzed through qRT-PCR.\ndetected on plate reader."}, "[3]": {"system": "MLD–STZ C57BL/6J mice", "assay": "MLD–STZ model: β-cell apoptosis (TUNEL)", "format": "in vivo, mouse", "experimental": "C57Bl/6J mice were injected with 40 mg/kg streptozotocin or citrate buffer for 5 consecutive days. […] In d, basal glucose values were normalized to 100%. e Insulin secretion measured from retro-orbital blood draw during an ipGTT measured before (0 min) and 15 min after glucose injection; data are expressed as the ratio of secreted insulin at 15 min/0 min (stimulatory index). f The ratio of secreted insulin and glucose is calculated at fed state. g–i Mice were killed at day 35. g β-cell mass (given as percentage of the whole pancreatic section from ten sections spanning the width of the pancreas) and quantitative analyses from triple staining for h TUNEL or i Ki67, insulin, and DAPI expressed as percentage of TUNEL- or Ki67-positive β-cells ±SEM. An average number of 2331 (h), or 26369 (i) β-cells were counted. n = 9 mice/group for (a); n = 4–12 for (b); n = 5–15 for (c) and (d); n = 12–19 for (e); n = 8–14 for (f); n = 4–9 for (g); n = 4–11 for (h); and n = 6–11 mice/groupfor (i); all from three independent experiments).\nMouse pancreases were dissected and fixed in 4% formaldehyde at 4 °C for 12 h before embedding in paraffin[62]. Two-four-micrometer sections were deparaffinized, rehydrated, and incubated overnight at 4 °C with anti-PDX-1 (Abcam; #47267), anti-Glut2 (Chemicon; #07-1402), anti-Ki67 (Dako; #M7249), anti-phospho-Histone H3 (Ser10; Merck #06-570), and anti-NKX6.1 (DSHB, University of Iowa #F55A12[66]) in combination with TSA (Invitrogen #T30955), or for 2 h at room temperature with anti-insulin (Dako; A0546) antibodies (all at a dilution of 1:100, except anti-PDX-1, which was diluted 1:400) followed by fluorescein isothiocyanate (FITC)- or Cy3-conjugated secondary antibodies (Jackson ImmunoResearch Laboratories, West Grove, PA). Slides were mounted with Vectashield with 4′6-diamidino-2-phenylindole (DAPI) (Vector Labs). β-cell apoptosis was analyzed by the terminal deoxynucleotidyl transferase-mediated dUTP nick-end labeling (TUNEL) technique according to the manufacturer’s instructions (In Situ Cell Death Detection Kit, TMR red; Roche) and double stained for insulin. Fluorescence was analyzed by using a Nikon MEA53200 (Nikon GmbH, Dusseldorf, Germany) microscope, and images were acquired by using NIS-Elements software (Nikon)."}, "[4]": {"target": "FGFR1 (Homo sapiens, UniProt P11362)", "assay": "Nanosyn kinase profiling, mobility shift assay", "details": "read-out: % inhibition by neratinib"}, "[5]": {"target": "PIM-1-KINASE (Homo sapiens, UniProt P11309)", "sequence (P11309 whole entry)": "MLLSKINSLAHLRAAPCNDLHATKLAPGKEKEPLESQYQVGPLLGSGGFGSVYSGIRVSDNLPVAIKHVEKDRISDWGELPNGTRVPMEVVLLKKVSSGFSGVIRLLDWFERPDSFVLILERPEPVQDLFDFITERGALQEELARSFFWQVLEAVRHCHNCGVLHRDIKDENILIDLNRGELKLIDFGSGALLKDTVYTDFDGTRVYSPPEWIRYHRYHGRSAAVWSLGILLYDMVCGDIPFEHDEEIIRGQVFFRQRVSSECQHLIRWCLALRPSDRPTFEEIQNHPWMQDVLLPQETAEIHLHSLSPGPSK", "assay": "Nanosyn kinase profiling, mobility shift assay", "details": "read-out: % inhibition by neratinib"}, "[6]": {"system": "isolated islets from WT mice", "assay": "β-cell apoptosis (TUNEL/insulin) under diabetogenic conditions, WT islets"}, "[7]": {"system": "isolated islets from MST1-KO mice", "assay": "β-cell apoptosis (TUNEL/insulin) under diabetogenic conditions, MST1-KO islets"}, "[8]": {"target": "PAK2 (Homo sapiens, UniProt Q13177)", "assay": "biochemical", "details": "read-out: % inhibition by neratinib"}, "[9]": {"target": "MET (Homo sapiens, UniProt P08581)", "assay": "Nanosyn kinase profiling, mobility shift assay", "details": "read-out: % inhibition by neratinib"}, "[10]": {"system": "250 kinases", "assay": "Nanosyn panel of 250 biochemical kinase assays", "details": "3 µM, of 250 kinases", "experimental": "(§1) inhibition was determined for each assay."}, "[11]": {"target": "DAPK1 (Homo sapiens, UniProt P53355)", "sequence (P53355 whole entry)": "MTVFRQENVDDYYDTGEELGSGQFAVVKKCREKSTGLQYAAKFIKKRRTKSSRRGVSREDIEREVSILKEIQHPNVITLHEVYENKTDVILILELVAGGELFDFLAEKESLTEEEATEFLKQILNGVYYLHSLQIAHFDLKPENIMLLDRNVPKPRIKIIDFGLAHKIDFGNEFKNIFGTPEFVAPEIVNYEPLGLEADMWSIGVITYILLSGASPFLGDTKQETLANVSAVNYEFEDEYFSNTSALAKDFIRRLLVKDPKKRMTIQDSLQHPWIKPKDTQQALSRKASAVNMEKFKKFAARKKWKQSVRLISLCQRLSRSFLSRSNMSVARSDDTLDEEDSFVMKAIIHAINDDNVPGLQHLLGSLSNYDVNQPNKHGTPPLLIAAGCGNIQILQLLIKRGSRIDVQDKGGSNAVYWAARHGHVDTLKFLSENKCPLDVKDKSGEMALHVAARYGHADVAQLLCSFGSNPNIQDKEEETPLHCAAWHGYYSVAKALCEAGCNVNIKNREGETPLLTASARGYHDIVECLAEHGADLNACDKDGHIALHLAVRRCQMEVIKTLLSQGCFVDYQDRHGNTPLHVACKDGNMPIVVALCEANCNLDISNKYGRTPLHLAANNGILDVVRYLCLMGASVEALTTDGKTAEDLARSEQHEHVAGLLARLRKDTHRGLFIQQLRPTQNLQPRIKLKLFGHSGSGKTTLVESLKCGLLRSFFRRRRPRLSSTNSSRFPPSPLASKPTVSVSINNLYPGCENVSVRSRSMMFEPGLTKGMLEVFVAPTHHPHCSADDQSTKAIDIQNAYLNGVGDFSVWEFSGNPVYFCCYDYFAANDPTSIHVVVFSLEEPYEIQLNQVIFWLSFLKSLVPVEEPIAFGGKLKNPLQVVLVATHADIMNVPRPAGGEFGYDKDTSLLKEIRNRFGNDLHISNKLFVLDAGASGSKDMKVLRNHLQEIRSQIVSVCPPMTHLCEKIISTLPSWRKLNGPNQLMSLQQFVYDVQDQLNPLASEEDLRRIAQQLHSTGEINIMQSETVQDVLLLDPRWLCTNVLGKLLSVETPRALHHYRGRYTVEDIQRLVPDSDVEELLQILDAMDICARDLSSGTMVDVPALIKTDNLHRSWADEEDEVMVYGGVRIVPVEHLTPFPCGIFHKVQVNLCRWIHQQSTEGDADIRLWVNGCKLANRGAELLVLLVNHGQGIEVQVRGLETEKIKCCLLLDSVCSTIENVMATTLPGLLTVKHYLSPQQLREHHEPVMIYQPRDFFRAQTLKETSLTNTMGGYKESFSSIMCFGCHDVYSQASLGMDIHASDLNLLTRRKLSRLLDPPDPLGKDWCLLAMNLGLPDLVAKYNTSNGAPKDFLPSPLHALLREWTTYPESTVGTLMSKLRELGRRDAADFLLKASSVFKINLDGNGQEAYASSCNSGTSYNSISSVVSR", "assay": "Nanosyn kinase profiling, mobility shift assay", "details": "read-out: % inhibition by neratinib"}, "[12]": {"target": "MAP4K2 (Homo sapiens, UniProt Q12851)", "sequence (Q12851 whole entry, species assumed)": "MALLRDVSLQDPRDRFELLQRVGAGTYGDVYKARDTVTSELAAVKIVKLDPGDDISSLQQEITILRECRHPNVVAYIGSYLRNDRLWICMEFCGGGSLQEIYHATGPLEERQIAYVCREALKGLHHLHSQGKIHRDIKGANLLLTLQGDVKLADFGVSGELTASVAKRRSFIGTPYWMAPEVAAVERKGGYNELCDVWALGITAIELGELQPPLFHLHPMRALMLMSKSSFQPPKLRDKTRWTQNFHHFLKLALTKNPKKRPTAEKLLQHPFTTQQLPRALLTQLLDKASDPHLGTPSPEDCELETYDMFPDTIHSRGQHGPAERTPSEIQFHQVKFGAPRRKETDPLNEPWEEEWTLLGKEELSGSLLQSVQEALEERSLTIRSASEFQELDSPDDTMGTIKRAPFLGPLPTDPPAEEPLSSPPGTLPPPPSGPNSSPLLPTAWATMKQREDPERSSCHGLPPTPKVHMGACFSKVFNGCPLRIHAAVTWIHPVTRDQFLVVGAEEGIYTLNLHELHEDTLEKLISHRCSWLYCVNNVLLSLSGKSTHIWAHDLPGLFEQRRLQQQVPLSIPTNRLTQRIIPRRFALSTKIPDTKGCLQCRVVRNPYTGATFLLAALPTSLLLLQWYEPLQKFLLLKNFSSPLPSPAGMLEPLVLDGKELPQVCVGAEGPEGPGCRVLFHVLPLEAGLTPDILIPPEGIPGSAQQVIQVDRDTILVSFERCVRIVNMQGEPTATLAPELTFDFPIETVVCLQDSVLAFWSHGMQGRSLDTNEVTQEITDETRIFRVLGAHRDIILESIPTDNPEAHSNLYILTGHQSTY", "assay": "Nanosyn kinase profiling, mobility shift assay", "format": "biochemical", "details": "12 points dose response", "experimental": "as §1"}, "[13]": {"target": "T1, HIPK1 (Homo sapiens, UniProt Q86Z02)", "T1 construct": "Nanosyn (assay service)", "T1 sequence (Q86Z02 whole entry, species assumed)": "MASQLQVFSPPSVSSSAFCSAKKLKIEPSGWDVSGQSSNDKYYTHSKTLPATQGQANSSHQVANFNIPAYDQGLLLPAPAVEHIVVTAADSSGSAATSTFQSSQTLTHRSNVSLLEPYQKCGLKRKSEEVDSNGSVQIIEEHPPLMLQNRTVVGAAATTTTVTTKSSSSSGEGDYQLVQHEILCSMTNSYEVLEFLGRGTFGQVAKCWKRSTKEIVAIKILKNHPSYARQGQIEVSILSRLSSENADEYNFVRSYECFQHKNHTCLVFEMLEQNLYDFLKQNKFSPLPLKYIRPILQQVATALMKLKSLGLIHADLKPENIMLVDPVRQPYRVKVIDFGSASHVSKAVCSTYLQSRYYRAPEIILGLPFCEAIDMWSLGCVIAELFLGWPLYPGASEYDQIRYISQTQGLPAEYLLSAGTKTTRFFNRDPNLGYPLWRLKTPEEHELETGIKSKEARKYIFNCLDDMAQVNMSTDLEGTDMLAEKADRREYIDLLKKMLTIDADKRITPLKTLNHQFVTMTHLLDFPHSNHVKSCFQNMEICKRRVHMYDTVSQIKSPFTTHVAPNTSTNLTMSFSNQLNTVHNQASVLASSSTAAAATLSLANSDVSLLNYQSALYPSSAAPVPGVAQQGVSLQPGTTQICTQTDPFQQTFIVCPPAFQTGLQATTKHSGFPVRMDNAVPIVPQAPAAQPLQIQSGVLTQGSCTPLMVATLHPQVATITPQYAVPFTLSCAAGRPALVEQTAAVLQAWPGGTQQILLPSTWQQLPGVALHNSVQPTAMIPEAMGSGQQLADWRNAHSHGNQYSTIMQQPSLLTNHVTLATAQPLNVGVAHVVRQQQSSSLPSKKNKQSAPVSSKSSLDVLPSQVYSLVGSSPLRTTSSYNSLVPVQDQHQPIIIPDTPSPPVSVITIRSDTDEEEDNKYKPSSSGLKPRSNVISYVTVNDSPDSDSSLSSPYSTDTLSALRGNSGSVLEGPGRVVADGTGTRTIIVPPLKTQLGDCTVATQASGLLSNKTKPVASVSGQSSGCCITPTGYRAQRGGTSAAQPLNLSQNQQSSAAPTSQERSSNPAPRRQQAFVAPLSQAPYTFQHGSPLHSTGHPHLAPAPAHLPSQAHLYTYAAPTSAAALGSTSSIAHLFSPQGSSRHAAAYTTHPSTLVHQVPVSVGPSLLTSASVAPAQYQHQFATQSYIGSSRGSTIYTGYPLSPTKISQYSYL", "assay": "Nanosyn kinase profiling, mobility shift assay", "format": "biochemical", "details": "12 points dose response", "experimental": "as §1"}, "[14]": {"target": "T2, MST3 (Homo sapiens, UniProt Q9Y6E0)", "T2 construct": "Nanosyn (assay service)", "assay": "Nanosyn kinase profiling, mobility shift assay", "format": "biochemical", "details": "12 points dose response", "experimental": "as §1"}, "[15]": {"target": "PAK3 (Homo sapiens, UniProt O75914)", "assay": "Nanosyn kinase profiling, mobility shift assay", "format": "biochemical", "details": "12 points dose response", "experimental": "as §1"}, "[16]": {"target": "T3, CHEK2 (Homo sapiens, UniProt O96017)", "T3 construct": "Nanosyn (assay service)", "T3 sequence (O96017 whole entry, species assumed)": "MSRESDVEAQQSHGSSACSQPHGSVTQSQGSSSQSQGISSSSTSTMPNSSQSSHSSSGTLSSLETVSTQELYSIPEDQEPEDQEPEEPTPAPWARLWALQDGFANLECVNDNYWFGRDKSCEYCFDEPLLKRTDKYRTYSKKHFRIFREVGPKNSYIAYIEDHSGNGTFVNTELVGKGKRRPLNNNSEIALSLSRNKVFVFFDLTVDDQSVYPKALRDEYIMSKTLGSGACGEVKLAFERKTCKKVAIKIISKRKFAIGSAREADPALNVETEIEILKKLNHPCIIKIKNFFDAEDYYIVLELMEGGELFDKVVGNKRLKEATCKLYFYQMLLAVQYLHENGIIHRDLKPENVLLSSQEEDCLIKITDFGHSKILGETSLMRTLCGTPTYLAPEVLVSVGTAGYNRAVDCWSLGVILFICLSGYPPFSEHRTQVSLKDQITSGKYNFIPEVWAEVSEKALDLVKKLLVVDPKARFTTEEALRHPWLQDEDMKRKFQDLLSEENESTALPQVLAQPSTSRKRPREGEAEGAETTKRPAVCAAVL", "assay": "Nanosyn kinase profiling, mobility shift assay", "format": "biochemical", "details": "12 points dose response", "experimental": "as §1"}, "[17]": {"target": "T4, PAK5 (Homo sapiens, UniProt Q9P286)", "T4 construct": "Nanosyn (assay service)", "T4 sequence (Q9P286 whole entry)": "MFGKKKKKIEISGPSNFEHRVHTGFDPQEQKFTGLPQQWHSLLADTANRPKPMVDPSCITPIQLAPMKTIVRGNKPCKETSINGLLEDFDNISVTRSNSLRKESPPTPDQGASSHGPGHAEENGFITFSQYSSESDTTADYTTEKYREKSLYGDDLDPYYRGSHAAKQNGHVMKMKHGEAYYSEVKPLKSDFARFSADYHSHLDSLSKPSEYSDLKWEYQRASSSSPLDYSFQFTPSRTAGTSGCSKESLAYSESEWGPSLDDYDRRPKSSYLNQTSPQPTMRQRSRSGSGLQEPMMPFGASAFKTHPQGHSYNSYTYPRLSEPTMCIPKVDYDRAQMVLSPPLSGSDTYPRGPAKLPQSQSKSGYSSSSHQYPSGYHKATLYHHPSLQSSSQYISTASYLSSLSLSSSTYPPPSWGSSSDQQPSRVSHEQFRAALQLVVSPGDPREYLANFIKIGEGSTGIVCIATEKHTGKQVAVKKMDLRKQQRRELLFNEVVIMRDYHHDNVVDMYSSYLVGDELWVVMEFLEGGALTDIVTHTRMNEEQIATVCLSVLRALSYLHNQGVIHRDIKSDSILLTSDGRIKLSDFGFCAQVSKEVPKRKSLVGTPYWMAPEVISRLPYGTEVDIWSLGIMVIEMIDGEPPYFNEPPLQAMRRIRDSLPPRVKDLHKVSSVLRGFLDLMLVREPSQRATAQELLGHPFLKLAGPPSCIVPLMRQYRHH", "assay": "Nanosyn kinase profiling, mobility shift assay", "format": "biochemical", "details": "12 points dose response", "experimental": "as §1"}, "[18]": {"target": "T5, PAK6 (Homo sapiens, UniProt Q9NQU5)", "T5 construct": "Nanosyn (assay service)", "assay": "Nanosyn kinase profiling, mobility shift assay", "format": "biochemical", "details": "12 points dose response", "experimental": "as §1"}, "[19]": {"target": "T6, PHK1 (Homo sapiens, UniProt Q16816)", "T6 construct": "Nanosyn (assay service)", "assay": "Nanosyn kinase profiling, mobility shift assay", "format": "biochemical", "details": "12 points dose response", "experimental": "as §1"}, "[20]": {"target": "SYK (Homo sapiens, UniProt P43405)", "assay": "Nanosyn kinase profiling, mobility shift assay", "details": "read-out: % inhibition by neratinib"}}, "note": "Several values for one entry are separate records, joined by “and”; a condition that tells them apart may be missing. Equal entries are not always repeated.", "data": [{"smiles": "CCOc1cc2ncc(C#N)c(Nc3ccc(OCc4ccccn4)c(Cl)c3)c2cc1NC(=O)/C=C/CN(C)C", "note": "[neratinib]", "values": [{"measurement": "β-cell survival in db/db islets ex vivo", "setting": "[1]; 10 μM, 24 h", "value": "fully restored β-cell survival"}, {"measurement": "TUNEL%", "setting": "[1]; MEAN", "value": 1.158, "unit": "%"}, {"measurement": "TUNEL%", "setting": "[1]; individual replicates", "value": "1.875% and 1.213% and 0.7124% and 0.9025% and 0.3448% and 1.9025%"}, {"measurement": "caspase-3 activation induced by thapsigargin", "setting": "[2]", "value": "dose-dependently abolished"}, {"measurement": "TUNEL%/ mouse", "setting": "[3]; NeraCtr group (no STZ), MEAN", "value": 0.08333, "unit": "%"}, {"measurement": "TUNEL%/ mouse", "setting": "[3]; NeraCtr group (no STZ), individual mice", "value": "0.3333% and 0%"}, {"measurement": "TUNEL%/ mouse", "setting": "[3]; NeraSTZ group, MEAN", "value": 0.24, "unit": "%"}, {"measurement": "TUNEL%/ mouse", "setting": "[3]; NeraSTZ group, individual mice", "value": "0% and 0.2857% and 1.2987% and 0.3546% and 0.7008%"}, {"measurement": "β-cell apoptosis", "setting": "[3]; STZ mice, day 35", "value": "reduced β-cell apoptosis"}, {"measurement": "inhibition at 10 µM", "setting": "[4]", "value": 26, "unit": "%"}, {"measurement": "inhibition at 10 µM", "setting": "[5]", "value": 13, "unit": "%"}, {"measurement": "cytokine- and glucolipotoxicity-induced apoptosis in WT islets", "setting": "[6]; 10 μM, 72 h", "value": "reduced cytokine- and glucolipotoxicity-induced apoptosis"}, {"measurement": "mean TUNEL/isolation/%", "setting": "[6]; WT HG/Pal Nera 10 μM 72 h, mean", "value": 370.621, "unit": "%"}, {"measurement": "mean TUNEL/isolation/%", "setting": "[6]; WT HG/Pal Nera 10 μM 72 h, single isolations, WT untreated = 100", "value": "424.349% and 323.811% and 387.381% and 346.941%"}, {"measurement": "mean TUNEL/isolation/%", "setting": "[6]; WT ILIF Nera 10 μM 72 h, mean", "value": 814.399, "unit": "%"}, {"measurement": "cytokine- and glucolipotoxicity-induced apoptosis in MST1-KO islets", "setting": "[7]; 10 μM, 72 h", "value": "no significant effect"}, {"measurement": "mean TUNEL/isolation/%", "setting": "[7]; MST1-KO HG/Pal Nera 10 μM 72 h", "value": 407.974, "unit": "%"}, {"measurement": "mean TUNEL/isolation/%", "setting": "[7]; MST1-KO ILIF Nera 10 μM 72 h", "value": 384.79, "unit": "%"}, {"measurement": "inhibition at 10 µM", "setting": "[8]", "value": 101, "unit": "%"}, {"measurement": "inhibition at 10 µM", "setting": "[9]", "value": 28, "unit": "%"}, {"measurement": "number of kinases with 50% of inhibition", "setting": "[10]", "value": 59}, {"measurement": "inhibition at 10 µM", "setting": "[11]", "value": 4, "unit": "%"}, {"measurement": "IC50", "setting": "[12]", "value": 102, "unit": "nM"}, {"measurement": "IC50", "setting": "[13]", "value": "> 20000", "unit": "nM"}, {"measurement": "IC50", "setting": "[14]", "value": 5, "unit": "nM"}, {"measurement": "IC50", "setting": "[15]", "value": 1500, "unit": "nM"}, {"measurement": "IC50", "setting": "[16]", "value": 937, "unit": "nM"}, {"measurement": "IC50", "setting": "[17]", "value": "> 20000", "unit": "nM"}, {"measurement": "IC50", "setting": "[18]", "value": "> 20000", "unit": "nM"}, {"measurement": "IC50", "setting": "[19]", "value": 5850, "unit": "nM"}, {"measurement": "inhibition at 10 µM", "setting": "[20]", "value": -14, "unit": "%"}]}]}
